Assay results published in paper PMC11513923, “Discovery of ZLC491 as a Potent, Selective, and Orally Bioavailable CDK12/13 PROTAC Degrader” (Journal of Medicinal Chemistry, 2024).

How the values were obtained:
CCNK [1] = test: TMT-labeled quantitative proteomics in MDA-MB-231 cells; type: cell-based, Homo sapiens; conditions: 8 h
Method: (§1) The global proteomic selectivity of ZLC491 was investigated by using the tandem mass tag (TMT) labeled mass-spectrometry. […] CDK13 was not detected in either degrader treatment groups or DMSO control groups, likely due to its insufficient cellular expression for mass spectrometry detection.
Figure 5 ZLC491 degraded CDK12/13 with high selectivity. (A) Global proteomic analysis of ZLC491 in MDA-MB-231 cells after 8 h treatment of DMSO or 2 μM ZLC491; (B) mass-spec quantification of CDKs changes; (C) immunoblotting of target protein degradation in samples for proteomic analysis.
MDA-MB-231 cells were seeded at 8 × 10^5 cells in 6 cm dishes 24 h before treating with 2 μM ZLC491 or DMSO in quadruplicate or triplicate for 8 h. […] Samples were quantified using a micro-BCA protein assay kit (Thermo Fisher Scientific) and 600 μg of each sample was processed and digested using the filter aided sample preparation (FASP) method followed by alkylation with iodoacetamide and digestion with trypsin. […]
The fractions were analyzed sequentially on an Orbitrap Fusion Lumos Mass Spectrometer (Thermo Scientific) coupled to a NanoLC-1200 UHPLC system (Thermo Scientific) with C18 capillary column. […] MS3 precursor were fragmented by HCD and analyzed with Orbitrap at NCE 65, AGC 1E5, resolution 60000. […]

CCNK [2] = test: Immunoblotting of CCNK in MDA-MB-231 cells; type: cell-based, human; conditions: MDA-MB-231, increasing concentrations, 15 h
Method: as §1
Generally, the tested cells were washed by ice-cold PBS buffer (Gibco) and lysed with an SDS lysis buffer (62.5 mM Tris, 2% w/v SDS, 10 glycerol, 50 mM DTT, 0.01% w/v bromophenol blue) on ice, after which the protein lysate samples were collected to 1.5 mL microcentrifuge tubes and treated with ultrasonic for 10 s, following with a 100 °C incubation for 10 min and a 4 °C centrifugation of 12000 rpm for 10 min. An equal amount of protein was loaded to 4–8% Bis-Tris gels and underwent an SDS-PAGE electrophoresis at 55V for 30 min and 95V for 90 min. Proteins on gels were then transferred to a polyvinylidene difluoride (PVDF) membrane (Bio-Rad) with a wet electro transfer system (Bio-Rad). The PVDF membrane was cut into bands and incubated in a blocking reagent (5% defatted milk powder dissolved in TBST) at room temperature for 1–2 h. Incubate membrane and primary antibody (at the appropriate dilution and diluent as recommended in the product webpage) at 4 °C for 12–14 h, followed with three times washes by TBST. […]

N#Cc1ccc(N[C@H]2CC[C@H](N(C(=O)NCc3ccccc3)c3ccc(N4CCN(C5CCN(c6cc7c(cc6F)C(=O)N(C6CCC(=O)NC6=O)C7=O)CC5)CC4)cc3)CC2)nc1 (stereo partly drawn) [ZLC491, 3-Benzyl-1-((1r,4r)-4-((5-cyanopyridin-2-yl)amino)cyclohexyl)-1-(4-(4-(1-(2-(2,6-dioxopiperidin-3-yl)-6-fluoro-1,3-dioxoisoindolin-5-yl)piperidin-4-yl)piperazin-1-yl)phenyl)urea]
FC_4-91 (CCNK) (CCNK [1]; 2 μM ZLC491 vs DMSO): 0.4255 | CCNK level in global proteomics (CCNK [1]; 2 μM): significantly decreased | CCNK degradation by Western blotting (CCNK [2]): dose-dependently degraded
